# Results from patent publication US20060111324A1, “(+)-Ttrans-isomers of (1-phosphonomethoxy-2-alkylcyclopropyl)methyl nucleoside derivatives, process for the preparation of stereoisomers thereof, and use of antiviral agents thereof” (LG Life Sciences, priority 2002, published 2006).
# Read-outs that look alike come from different tables or passages of the source.
# Experiments:
# Hepatitis B Virus (HBV) = test: Inhibition of hepatitis B virus replication in HepG2.2.15 cells, quantitative PCR of culture medium; assay type: cell-based; conditions: for pharmaceutical activity as an antiviral agent (in words): comparison among the compounds of Table 2
# HepG2.2.15 cell [1] = system: HepG2.2.15 cell
# [2] = Determination of cytotoxicity (MTT) in HepG2.2.15 cells; conditions: human
# HBV = test: Pharmacological test on HBV transgenic mouse (serum HBV DNA by PCR); assay type: in vivo; conditions: for Result: number of mice showing pharmacological effect / number of total mice: effect = blood does not contain HBV DNA
# HepG2.2.15 cell [3] = test: Determination of cytotoxicity (MTT) in HepG2.2.15 cells; conditions: read-out: CC50 (μM) in HepG2.2.15; MTT, 10th day of drug treatment
# [4] = Hepatitis B virus, 240 h, HepG2.2.15 cells, 10 days drug treatment, HBV DNA in medium by PCR
compound,measurement,setting,value
[{(±)-trans-1-({2-amino-6-[(4-methoxyphenyl)sulfanyl]-9H-purine-9-yl}methyl)-2-ethylcyclopropyl }oxy]methylphosphonic acid [Compound 43],EC50,Hepatitis B Virus (HBV),> 0.2 µM
same,CC50,HepG2.2.15 cell [1],> 1000 µM
({(±)-trans-1-[(6-amino-9H-purine-9-yl)methyl]-2-propylcyclopropyl}oxy)methylphosphonic acid [Compound 41],EC50,Hepatitis B Virus (HBV),> 30 µM
same,CC50,HepG2.2.15 cell [1],> 1000 µM
"CCC1CC1(Cn1cnc2cnc(N)nc21)OCP(=O)(O)O [Compound 13, ({(1S,^2S)-1-[(2-amino-9H-purine-9-yl)methyl]-2-ethylcyclopropyl}oxy)methylphosphonic acid]",EC50,Hepatitis B Virus (HBV); [4],> 10 µM
same,CC50 at 10 days,[2],> 1000 µM
"COc1ccc(Sc2nc(N)nc3c2ncn3CC2(OCP(=O)(OCOC(=O)C(C)(C)C)OCOC(=O)C(C)(C)C)CC2C)cc1 [Compound 8, (1S,2S)-3-{[(1-{[2-amino-6-(4-methoxyphenylthio)-9H-purine-9-yl]methyl}-2-methylcyclopropyl)oxy]methyl}-8,8-dimethyl-3,7-dioxo-2,4,6-trioxa-3λ^5-phospanon-1-yl-pivalate]",Result: number of mice showing pharmacological effect / number of total mice,"HBV; oral, 1 mg/kg/day",2/5
"CC1CC1(Cn1cnc2cnc(N)nc21)OCP(=O)(OCOC(=O)C(C)(C)C)OCOC(=O)C(C)(C)C [Compound 6, (1S,2S)-3-[({1-[(2-amino-9H-purine-9-yl)methyl]-2-methylcyclopropyl}oxy)methyl]-8,8-dimethyl-3,7-dioxo-2,4,6-trioxa-3λ^5-phosphanon-1-yl-pivalate]",Result: number of mice showing pharmacological effect / number of total mice,"HBV; oral, 1 mg/kg/day",5/5
"C[C@H]1C[C@]1(Cn1cnc2c(O)nc(N)nc21)OCP(=O)(O)O [Compound 1, (((1S,2S)-1-[(2-amino-6-hydroxy-9H-purine-9-yl)methyl]-2-methylcyclopropyl}oxy)methylphosphonic acid]",EC50,Hepatitis B Virus (HBV); [4],0.03 µM
same,pharmaceutical activity as an antiviral agent (in words),Hepatitis B Virus (HBV),most excellent pharmaceutical activity
same,CC50 at 10 days,[2],> 1000 µM
"C[C@@H]1C[C@]1(Cn1cnc2c(Sc3ccc([N+](=O)[O-])cc3)nc(N)nc21)OCP(=O)(O)O (relative stereo) [Compound 44, [{(+)-cis-1-({2-amino-6-[(4-nitrophenyl)sulfanyl]-9H-purine-9-yl}methyl)-2-methylcyclopropyl}oxy]methylphosphonic acid]",EC50,Hepatitis B Virus (HBV); [4],> 40 µM
same,CC50 at 10 days,[2],> 1000 µM
"CC[C@H]1C[C@]1(Cn1cnc2c(O)nc(N)nc21)OCP(=O)(O)O [Compound 12, ({(1S,2S)-1-[(2-amino-6-hydroxy-9H-purine-9-yl)methyl]-2-ethylcyclopropyl}oxy)methylphosphonic acid]",EC50,Hepatitis B Virus (HBV); [4],0.03 µM
same,pharmaceutical activity as an antiviral agent (in words),Hepatitis B Virus (HBV),most excellent pharmaceutical activity
same,CC50 at 10 days,[2],> 1000 µM
"CC1CC1(Cn1cnc2c(N)ncnc21)OCP(=O)(O)O (stereo not drawn) [Compound 45, ({[(+)-cis-[1-(6-amino-9H-purine-9-yl)methyl]-2-methylcyclopropyl}oxylmethylphosphonic acid]",EC50,Hepatitis B Virus (HBV); [4],> 40 µM
same,CC50 at 10 days,[2],> 1000 µM
"CC1CC1(Cn1cnc2c(O)nc(N)nc21)OCP(=O)(O)O (single isomer, unassigned) [Compound 36, {(−)-trans-1-[(2-amino-6-hydroxy-9H-purine-9-yl)methyl]-2-methylcyclopropyl}oxy)methylphosphonic acid]",EC50,"Hepatitis B Virus (HBV); HepG2.2.15 cells, 10 days drug treatment, HBV DNA in medium by PCR",> 10 µM
same,CC50,HepG2.2.15 cell [3],> 1000 µM
({(±)-trans-1-[(2-amino-9H-purine-9-yl)methyl]-2-propylcyclopropyl}oxy)methylphosphonic acid [Compound 39],EC50,Hepatitis B Virus (HBV),> 40 µM
same,CC50,HepG2.2.15 cell [1],> 1000 µM
"CC(C)OC(=O)OCOP(=O)(COC1(Cn2cnc3cnc(N)nc32)CC1C)OCOC(=O)OC(C)C [Compound 7, (1S,2S)-bis {[(isopropoxycarbonyl)oxy]methyl}({1-[(2-amino-9H-purine-9-yl)methyl]-2-methylcyclopropyl}oxy)methylphosphonate]",pharmacological effect (in words),"HBV; HBV transgenic mice, orally administrated at 1 mpk or less",very excellent pharmacological effect
same,Result: number of mice showing pharmacological effect / number of total mice,"HBV; oral, 1 mg/kg/day",5/5
"C[C@H]1C[C@]1(Cn1cnc2cnc(N)nc21)OCP(=O)(O)O [Compound 2, ({(1S,2S)-1-[(2-amino-9H-purine-9-yl)methyl]-2-methylcyclopropyl}oxy)methylphosphonic acid]",EC50,Hepatitis B Virus (HBV); [4],1 µM
same,Result: number of mice showing pharmacological effect / number of total mice,"HBV; subcutaneous, 10 mg/kg/day",4/4
same,CC50 at 10 days,[2],> 1000 µM
({(±)-trans-1-[(2-amino-6-hydroxy-9H-purine-9-yl)methyl]-2-propylcyclopropyl}oxy)methylphosphonic acid [Compound 40],EC50,Hepatitis B Virus (HBV),1.2 µM
same,CC50,HepG2.2.15 cell [1],> 1000 µM
"C[C@@H]1C[C@]1(Cn1cnc2c(O)nc(N)nc21)OCP(=O)(O)O (single isomer, unassigned) [Compound 38, ({(+)-cis-1-[(2-amino-6-hydroxy-9H-purine-9-yl)methyl]-2-methylcyclopropyl}oxy)methylphosphonic acid]",EC50,Hepatitis B Virus (HBV); [4],> 10 µM
same,CC50 at 10 days,[2],> 1000 µM
"CCC1CC1(Cn1cnc2c(O)nc(N)nc21)OCP(=O)(O)O (single isomer, unassigned) [Compound 37, ({(−)-trans-1-1(2-amino-6-hydroxy-9H-purine-9-yl)methyl]-2-ethylcyclopropyl}oxy)methylphosphonic acid]",EC50,Hepatitis B Virus (HBV); [4],> 40 µM
same,CC50 at 10 days,[2],> 1000 µM
